Experimental data reported in patent US20230330254A1 (Regeneron Pharmaceuticals, Inc., priority 2022, published 2023).
Where two headings read alike, the source gives them in different places. *1 amine or outer side, *2 acyl side, *3 side chain or, on linkers, in order; H or OH if unused. Where a SMILES comes first, the peptide text is derived from it. [ ]: non-standard residue; d: D form. The star is where a group is joined. Bip(2'-Et-4'-O(CH2)4NH2) = CCc1cc(OCCCCN[*:3])ccc1-c1ccc(C[C@H](N[*:1])C(=O)[*:2])cc1; Bip(2'-Et,4'-O(CH2)4N3) = CCc1cc(OCCCCN=[N+]=[N-])ccc1-c1ccc(C[C@H](N)C(=O)O)cc1; Bip(2'-Et,4'-O(CH2)4NH2) = CCc1cc(OCCCCN)ccc1-c1ccc(C[C@H](N)C(=O)O)cc1; X10 = O=C(NCCOCCOCCOCCOC(=O)*)OC[C@@H]1[C@@H]2CCc3[nH]nnc3CC[C@@H]21; Malonyl(2,2-Me2,histaminyl) = CC(C)(C(=O)NCCc1cnc[nH]1)C(=O)*; Nva(5-(3,5-Me2Ph)) = Cc1cc(C)cc(CCC[C@H](N)C(=O)O)c1; Ala(1H-tetrazol-5-yl) = N[C@@H](Cc1nnn[nH]1)C(=O)O; αMePhe(2-F) = C[C@](N)(Cc1ccccc1F)C(=O)O; Aib = CC(C)(N)C(=O)O; NHPh = c1ccc(N*)cc1

What was measured:
[1] = target: T1, human GLP1R (Homo sapiens, UniProt P43220); assay: Luciferase reporter assay, HEK293/CRE-Luc/hGLP1R (Example 17); type: cell-based; design: engineered to express full-length human GLP1R, cynomolgus GLP1R; expressed in transfected cells; host or cells: HEK293/CRE-Luc; conditions: HEK293/CRE-Luc/hGLP1R; for S/N: highest RLU / RLU of untreated wells; for EC50: payloads and linker-payloads, experiments A-E, M2361 repeated in each, read-out: EC50; for Relative Potency (% M2361 EC50) / Relative Signal:Noise (% M2361): relative to M2361 of the same experiment
Outline: (§1)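 HEK293 cells carrying a CRE-driven firefly luciferase reporter were exposed to 3-fold serial dilutions of payloads or linker-payloads (12 points, 0.2% DMSO final) for 4–6 h, then luminescence was read. EC50 came from a four-parameter logistic fit; S/N is top RLU over untreated wells, and relative potency and S/N are referenced to M2361.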

[2] = target: T1, human GLP1R; assay: Human GLP1R cAMP accumulation assay; type: cell-based; design: HEK293 cells over-expressing full length human GLP-1R were utilized; expressed in transfected cells; host or cells: HEK293 (HEK293/hGLP1R); conditions: HEK293/hGLP1R cells; Table 4; read-out: cAMP EC50
Outline: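 cAMP accumulation measured after 30 min at 23° C, with 500 μM IBMX in HEPES-buffered HBSS plus 0.1% BSA, in HEK293 cells expressing full-length hGLP-1R. Levels read by D2-cAMP/antibody immunoassay via standard curve, scaled between low and high controls. EC50 fitted four-parameter over a 10-point curve.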

[3] = Plasma stability of payloads (t½)
[4] = system: HEK293/CRE-Luc cells; assay: Luciferase reporter assay, HEK293/CRE-Luc cells without GLP1R (Example 17); type: cell-based, human; conditions: HEK293/CRE-Luc cells without hGLP1R, payloads and linker-payloads; for EC50: read-out: EC50
Outline: as §1

[5] = Plasma stability of payloads and linker-payloads, human plasma; type: in vitro ADME; conditions: plasma, 2 μM, 37° C., read-out: Human plasma stability assay T½ (converted)
Description: The plasma stability of payloads and linker payloads of the disclosure were measured. For the assay, pooled frozen plasma (human, mouse or monkey) was thawed in cold water or a 37° C. water bath prior to experiment. Plasma was centrifuged at 4000 rpm for 5 min if any clots were observed, they were subsequently removed. If required, the pH was adjusted to 7.4±0.1. For the preparation of compounds and positive controls, a 1 mM intermediate solution was prepared by diluting 10 μL of their stock solution with 90 μL DMSO; a 1 mM intermediate solution of the positive control (Propantheline) was prepared by diluting 10 μL of its stock solution with 90 μL ultrapure water. […] 98 μL of plasma was spiked with 2 μL of dosing solution (100 μM) to achieve the final concentration of 2 μM in duplicate. Samples were then incubated at 37° C. in a water bath. […] At each time point, 400 μL of stop solution (200 ng/mL tolbutamide plus 200 ng/mL labetalol in 50% ACN/MeOH) was added to precipitate protein and mixed thoroughly. Sample plates were then centrifuged at 4,000 rpm for 10 min. An aliquot of supernatant (50 μL) was transferred from each well and mixed with 100 μL ultrapure water. The samples were then shaken at 800 rpm for approximately 10 min before submitting for LC-MS/MS analysis.

[6] = system: HEK293/CRE-Luc cells; assay: Luciferase reporter assay, HEK293/CRE-Luc cells without hGLP1R (Example 11); type: cell-based, human; conditions: Table 11; Experiment A; no hGLP1R expression
Source text: (§2) To test the activity of GLP1R agonist payloads, GLP1R agonist linker-payloads (LPs), and anti-GLP1R antibody tethered drug conjugates (ATDCs) of the disclosure, a cell-based cAMP responsive luciferase reporter assay was developed. To generate the assay cell line, the firefly luciferase gene was placed under the control of a cAMP response element (CRE) located upstream of a minimal promoter and transfected into HEK293 cells and referred to herein as HEK293/CRE-Luc cells.
(§3) Three-fold serial dilutions of free payloads or LPs were prepared in 100% DMSO, transferred to fresh assay media, and added to the cells at a final constant DMSO concentration of 0.2%. The last well in the plate served as a blank control containing only the assay media and 0.2% DMSO (untreated well) and was plotted as a continuation of the 3-fold serial dilution. Four to six hours later, luciferase activity was determined after the addition of One-Glo™ reagent (Promega, Cat #E6130) to each well. Relative light units (RLUs) were measured on an Envision luminometer (PerkinElmer) and EC50 values were determined using a four-parameter logistic equation over a 12-point dose response curve (GraphPad Prism). The signal to noise (S/N) was determined by taking the ratio of the highest RLU on the dose response curve to the RLU in the untreated wells.

[7] = target: T1, human GLP1R; assay: Luciferase reporter assay, HEK293/CRE-Luc/hGLP1R cells (Example 11); type: cell-based; design: engineered to express full-length human GLP1R, cynomolgus GLP1R; expressed in transfected cells; host or cells: HEK293/CRE-Luc; conditions: Table 11; Experiment A
Source text: as §2, §3
GLP1R agonist linker payloads were conjugated to anti-hGLP1R antibodies via N-terminal heavy or light chain Q tags. Several resulting anti-GLP1R antibody tethered drug conjugates (ATDCs) were tested for activity in the HEK293/CRE-Luc/hGLP1R reporter assay as described above for the free GLP1R payload and linker-payload agonists.

[8] = pH 7.4, tested time A (1 day per footnote)
[9] = pH 7.4, tested time B (2 hrs per footnote)

T1 sequence (P43220 24-463): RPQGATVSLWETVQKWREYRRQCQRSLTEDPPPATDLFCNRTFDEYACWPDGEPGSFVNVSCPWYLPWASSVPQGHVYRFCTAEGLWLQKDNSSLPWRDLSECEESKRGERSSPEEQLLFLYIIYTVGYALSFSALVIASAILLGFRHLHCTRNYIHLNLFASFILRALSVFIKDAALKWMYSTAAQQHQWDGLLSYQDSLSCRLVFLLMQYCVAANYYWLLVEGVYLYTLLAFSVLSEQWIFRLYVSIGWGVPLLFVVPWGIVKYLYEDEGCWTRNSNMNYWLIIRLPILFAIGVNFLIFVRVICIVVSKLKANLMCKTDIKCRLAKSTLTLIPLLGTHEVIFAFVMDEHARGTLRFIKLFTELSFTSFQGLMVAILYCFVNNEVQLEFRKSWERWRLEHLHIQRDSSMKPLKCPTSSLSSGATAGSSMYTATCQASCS

SMILES	S/N [1]	EC50 [1] [nM]	Relative Potency (% M2361 EC50) [1] [%]	Relative Signal:Noise (% M2361) [1] [%]	EC50 [2] [nM]	Plasma stability t½ [3] [h]	S/N [4]	EC50 [4] [nM]	half-life at 2 µM [5, 8] [h]	half-life at 2 µM [5, 9] [h]	EC50 [6] [nM]	HEK293/CRE-LUC S/N [6]	EC50 [7] [nM]	HEK293/CRE-LUC/hGLP1R Relative Potency (% P8 EC50) [7] [%]	HEK293/CRE-LUC/hGLP1R S/N [7]	half-life at 2 µM ([5]; pH 7.4, tested time D (7 days)) [h]
CCc1cc(OCCCCN)ccc1-c1ccc(C[C@H](NC(=O)[C@H](CC(=O)O)NC(=O)[C@H](CO)NC(=O)[C@@H](NC(=O)[C@](C)(Cc2ccccc2F)NC(=O)[C@@H](NC(=O)CNC(=O)[C@H](Cc2nn[nH]n2)NC(=O)C(C)(C)NC(=O)[C@@H](N)Cc2ccc(O)cc2)[C@@H](C)O)[C@@H](C)O)C(=O)N[C@@H](CCCc2cc(C)cc(C)c2)C(N)=O)cc1 [P19] (H-Y[Aib][Ala(1H-tetrazol-5-yl)]GT[αMePhe(2-F)]TSD[Bip(2'-Et,4'-O(CH2)4NH2)][Nva(5-(3,5-Me2Ph))]-NH2)	78.5	0.0535	9.9	119.4	0.156	>57.8	1.0	> 200	> 57.8	–	–	–	–	–	–	–
CCc1cc(OCCCCN)ccc1-c1ccc(C[C@H](NC(=O)[C@H](CC(=O)O)NC(=O)[C@H](CO)NC(=O)[C@@H](NC(=O)[C@](C)(Cc2ccccc2F)NC(=O)[C@@H](NC(=O)CNC(=O)[C@@H](N)Cc2nn[nH]n2)[C@@H](C)O)[C@@H](C)O)C(=O)N[C@@H](CCCc2cc(C)cc(C)c2)C(N)=O)cc1 [P2]	306.2	19	0.1	93.4	–	10.7	–	–	–	10.7	–	–	–	–	–	–
CCc1cc(OCCCCN)ccc1-c1ccc(C[C@H](NC(=O)[C@H](CC(=O)O)NC(=O)[C@H](CO)NC(=O)[C@@H](NC(=O)[C@](C)(Cc2ccccc2F)NC(=O)[C@@H](NC(=O)CNC(=O)[C@H](Cc2nn[nH]n2)NC(=O)[C@H](C)NC(=O)[C@@H](N)Cc2cnc[nH]2)[C@@H](C)O)[C@@H](C)O)C(=O)N[C@@H](CCCc2cc(C)cc(C)c2)C(N)=O)cc1 [P10] (H-HA[Ala(1H-tetrazol-5-yl)]GT[αMePhe(2-F)]TSD[Bip(2'-Et,4'-O(CH2)4NH2)][Nva(5-(3,5-Me2Ph))]-NH2)	45.1	0.014	38.0	68.6	0.047	–	1.2	> 200	–	1.83	> 200	1.2	0.014	38.0	45.1	–
CCc1cc(OCCCCNC(=O)OCCOCCOCCOCCNC(=O)OC[C@@H]2[C@@H]3CCc4[nH]nnc4CC[C@@H]32)ccc1-c1ccc(C[C@H](NC(=O)[C@H](CC(=O)O)NC(=O)[C@H](CO)NC(=O)[C@@H](NC(=O)[C@](C)(Cc2ccccc2F)NC(=O)[C@@H](NC(=O)CNC(=O)[C@H](Cc2nn[nH]n2)NC(=O)C(C)(C)C(=O)NCCc2cnc[nH]2)[C@@H](C)O)[C@@H](C)O)C(=O)N[C@@H](CCCc2cc(C)cc(C)c2)C(N)=O)cc1 [LP25, triazole-BCN-PEG4-carba-mate-P9] ({Malonyl(2,2-Me2,histaminyl)}-[Ala(1H-tetrazol-5-yl)]GT[αMePhe(2-F)]TSD[Bip(2'-Et-4'-O(CH2)4NH2)](X10)[Nva(5-(3,5-Me2Ph))]-NH2)	–	–	–	–	–	–	–	–	–	–	–	–	–	–	–	285
CCc1cc(OCCCCN=[N+]=[N-])ccc1-c1ccc(C[C@H](NC(=O)[C@H](CC(=O)O)NC(=O)[C@H](CO)NC(=O)[C@@H](NC(=O)[C@](C)(Cc2ccccc2F)NC(=O)[C@@H](NC(=O)CNC(=O)[C@H](Cc2nn[nH]n2)NC(=O)C(C)(C)C(=O)NCCc2cnc[nH]2)[C@@H](C)O)[C@@H](C)O)C(=O)N[C@@H](CCCc2cc(C)cc(C)c2)C(=O)O)cc1 [P41] ({Malonyl(2,2-Me2,histaminyl)}-[Ala(1H-tetrazol-5-yl)]GT[αMePhe(2-F)]TSD[Bip(2'-Et,4'-O(CH2)4N3)][Nva(5-(3,5-Me2Ph))]-OH)	–	–	–	–	–	–	–	–	> 57.8	–	–	–	–	–	–	–
CCc1cc(OCCCCNC(=O)[C@H](CO)NC(=O)CNC(=O)CNC(=O)CNC(=O)CNC(=O)CCC(=O)N2Cc3ccccc3-c3nn[nH]c3-c3ccccc32)ccc1-c1ccc(C[C@H](NC(=O)[C@H](CC(=O)O)NC(=O)[C@H](CO)NC(=O)[C@@H](NC(=O)[C@](C)(Cc2ccccc2F)NC(=O)[C@@H](NC(=O)CNC(=O)[C@H](Cc2nn[nH]n2)NC(=O)C(C)(C)C(=O)NCCc2cnc[nH]2)[C@@H](C)O)[C@@H](C)O)C(=O)N[C@@H](CCCc2cc(C)cc(C)c2)C(N)=O)cc1 [LP26, triazole- DIBAC- G4S-P9]	–	–	–	–	–	–	–	–	–	–	–	–	–	–	–	> 405
CCc1cc(OCCCCn2cc(COCCOCCOCCOCCNC(=O)OC[C@@H]3[C@@H]4CCc5[nH]nnc5CC[C@@H]43)nn2)ccc1-c1ccc(C[C@H](NC(=O)[C@H](CC(=O)O)NC(=O)[C@H](CO)NC(=O)[C@@H](NC(=O)[C@](C)(Cc2ccccc2F)NC(=O)[C@@H](NC(=O)CNC(=O)[C@H](Cc2nn[nH]n2)NC(=O)C(C)(C)C(=O)NCCc2cnc[nH]2)[C@@H](C)O)[C@@H](C)O)C(=O)N[C@@H](CCCc2cc(C)cc(C)c2)C(N)=O)cc1 [LP24, triazole-BCN-PEG4-triazole-P8]	–	–	–	–	–	–	–	–	–	–	–	–	–	–	–	> 405
CCc1cc(OCCCCN)ccc1-c1ccc(C[C@H](NC(=O)[C@H](CC(=O)O)NC(=O)[C@H](CO)NC(=O)[C@@H](NC(=O)[C@](C)(Cc2ccccc2F)NC(=O)[C@@H](NC(=O)CNC(=O)[C@H](Cc2nn[nH]n2)NC(=O)C(C)(C)C(=O)NCCc2cnc[nH]2)[C@@H](C)O)[C@@H](C)O)C(=O)N[C@@H](CCCc2cc(C)cc(C)c2)C(=O)Nc2ccccc2)cc1 [P23] ({Malonyl(2,2-Me2,histaminyl)}-[Ala(1H-tetrazol-5-yl)]GT[αMePhe(2-F)]TSD[Bip(2'-Et,4'-O(CH2)4NH2)][Nva(5-(3,5-Me2Ph))]-NHPh)	57.1	0.00515	103.0	86.9	0.198	–	1.6	> 200	–	10.7	> 200	1.6	0.00515	103.0	57.1	–
